Like-named read-outs stand apart in the source and are kept apart here.
System: alkaline phosphatase activity in T47D cells
Test: Effects of progestins and antiprogestins on alkaline phosphatase activity in T47D cells
Format: cell-based
Details: Homo sapiens
Experimental: Effects of Progestins and Antiprogestins on Alkaline Phosphatase Activity in T47D Cells
PURPOSE: To identify progestins or antiprogestins by determining a compound's effect on alkaline phosphatase activity in T47D cells.
Culture medium: DMEM:F12 (1:1) (GIBCO, BRL) supplemented with 5% (v/v) charcoal stripped fetal bovine serum (not heat-inactivated), 100 U/mL penicillin, 100 μg/mL streptomycin, and 2 mM the GlutaMax™ reagent (GIBCO, BRL).
Alkaline phosphatase assay buffer: • I. 0.1M Tris-HCl, pH 9.8, containing 0.2% the Triton® X-100 reagent • II. 0.1M Tris-HCl, pH 9.8, containing 4 mM p-nitrophenyl phosphate (Sigma).
Frozen T47D cells were thawed in a 37° C. water bath and diluted to 280,000 cells/mL in culture medium. To each well in a 96-well plate (Falcon, Becton Dickinson Labware), 180 μL of diluted cell suspension was added. Twenty μL of reference or test compounds diluted in the culture medium was then added to each well. When testing for progestin antagonist activity, reference antiprogestins or test compounds were added in the presence of 1 nM progesterone. The cells were incubated at 37° C. in a 5% CO2/humidified atmosphere for 24 hours. For high throughput screening, one concentration of each compound was tested at 0.3 μg/mL. Based on an average molecular weight of 300 g/mol for the compounds in the library, the concentration was approximately 1 μM. Subsequently, active compounds were tested in dose response assays to determine EC50 and IC50.
At the end of treatment, the medium was removed from the plate. Fifty μL of assay buffer I was added to each well. The plates were shaken in a titer plate shaker for 15 min. Then, 150 μL of assay buffer II was added to each well. Optical density measurements were taken at 5 min intervals for 30 min at a test wavelength of 405 nm.
For reference and test compounds, a dose response curve was generated for dose (X-axis) vs. the rate of enzyme reaction (slope) (Y-axis). Square root-transformed data were used for analysis of variance and nonlinear dose response curve fitting for both agonist and antagonist modes. Huber weighting was used to down-weight the effects of outliers. EC50 or IC50 values were calculated from the retransformed values. JMP software (SAS Institute, Inc.) is used for both one-way analysis of variance and non-4 linear dose response analysis in both single dose and dose response studies.
Progesterone and trimegestone are reference progestins known in the art and typically show an EC50 of about 0.1 nM to about 2.0 nM.

[1] = progestin antagonist mode in the presence of 1 nM progesterone, 24 hours, read-out: Alkaline Phosphatase T47D IC50

Row | SMILES | IC50 [1] | further results
1 | Cn1c(C#N)ccc1-c1ccc2c(c1)C(C)(C)CN2S(C)(=O)=O [Example 2, 5-[3,3-dimethyl-1-(methylsulfonyl)-2,3-dihydro-1H-indol-5-yl]-1-methyl-1H-pyrrole-2-carbonitrile] | 9.2 nM | 
2 | CCS(=O)(=O)N1CC(C)(C)c2cc(-c3ccc(C#N)n3C)ccc21 [Example 3, 5-[1-(ethylsulfonyl)-3,3-dimethyl-2,3-dihydro-1H-indol-5-yl]-1-methyl-1H-pyrrole-2-carbonitrile] | 6.8 nM | 
3 | Cn1c(C#N)ccc1-c1cc(F)c2c(c1)CCN2S(C)(=O)=O [Example 7, 5-[7-fluoro-1-(methylsulfonyl)-2,3-dihydro-1H-indol-5-yl]-1-methyl-1H-pyrrole-2-carbonitrile] | 11.1 nM | 
4 | CCS(=O)(=O)N1CCc2cc(-c3ccc(C#N)n3C)cc(F)c21 [Example 8, 5-[1-(ethylsulfonyl)-7-fluoro-2,3-dihydro-1H-indol-5-yl]-1-methyl-1H-pyrrole-2-carbonitrile] | 12.2 nM | 
5 | CC(=O)[C@H]1CC[C@H]2[C@@H]3CCC4=CC(=O)CC[C@]4(C)[C@H]3CC[C@]12C [Progesterone] |  | EC50 (agonist mode, typical value of reference compound): 0.1 to 2 nM
6 | CC#C[C@]1(O)CC[C@H]2[C@@H]3CCC4=CC(=O)CCC4=C3[C@@H](c3ccc(N(C)C)cc3)C[C@@]21C [RU486, reference compound] |  | IC50 (antagonist mode, typical value of reference compound, read-out: IC50 of reference antiprogestin, alkaline phosphatase T47D): 0.1 to 2 nM

More lines, main results first:

Row | IC50 [1] | SMILES | further results
7 | 4.3 nM | Cn1c(C#N)ccc1-c1ccc2c(c1)CCN2S(C)(=O)=O [Example 1, 1-methyl-5-[1-(methylsulfonyl)-2,3-dihydro-1H-indole-5-yl]-1H-pyrrole-2-carbonitrile] | 
8 | 2.4 nM | CCS(=O)(=O)N1CCc2cc(-c3ccc(C#N)n3C)ccc21 [Example 4, 5-[1-(ethylsulfonyl)-2,3-dihydro-1H-indol-5-yl]-1-methyl-1H-pyrrole-2-carbonitrile] | 
9 | 4.9 nM | CC(C)S(=O)(=O)N1CCc2cc(-c3ccc(C#N)n3C)ccc21 [Example 5, 5-[1-(isopropylsulfonyl)-2,3-dihydro-1H-indol-5-yl]-1-methyl-1H-pyrrole-2-carbonitrile] | 
10 | 2.3 nM | CCCS(=O)(=O)N1CCc2cc(-c3ccc(C#N)n3C)ccc21 [Example 6, 1-methyl-5-[1-(propylsulfonyl)-2,3-dihydro-1H-indol-5-yl]-1H-pyrrole-2-carbonitrile] | 
11 | 4.4 nM | Cn1c(C#N)ccc1-c1ccc2c(c1)CCCN2S(C)(=O)=O [Example 9, 1-methyl-5-[1-(methylsulfonyl)-1,2,3,4-tetrahydroquinolin-6-yl]-1H-pyrrole-2-carbonitrile] | 
12 | 3.15 nM | CCS(=O)(=O)N1CCCc2cc(-c3ccc(C#N)n3C)ccc21 [Example 10, 5-[1-(ethylsulfonyl)-1,2,3,4-tetrahydroquinolin-6-yl]-1-methyl-1H-pyrrole-2-carbonitrile] | 
13 | 3.6 nM | CCCS(=O)(=O)N1CCCc2cc(-c3ccc(C#N)n3C)ccc21 [Example 11, 1-methyl-5-[1-(propylsulfonyl)-1,2,3,4-tetrahydroquinolin-6-yl]-1H-pyrrole-2-carbonitrile] | 
